The record followed here is US11149024B2, “Synthesis of Mcl-1 inhibitor” (ASTRAZENECA AB, priority 2017, dated 2021).

Format in all cases: cell-based
Assay [1] concerns KMS-12-BM (multiple myeloma) cells. The assay is described as follows: Caspase Activity assay (Caspase-Glo 3/7), KMS-12-BM. The following applies: Homo sapiens; KMS-12-BM cells, 6 h treatment, induction of apoptosis. How it is done:
(§1) Caspase Activity assay: This is a cell assay to measure the induction of apoptosis in MOLP-8 (multiple myeloma), KMS-12-BM (multiple myeloma), MV4; 11 (acute myeloid leukemia), and NCI-H23 (non-small cell lung cancer) cells after 6 h treatment with Mcl-1 inhibitors. On the first day, 3000 (MOLP-8, KMS-12-BM, MV4; 11) or 1250 (NCI-H23) cells/well were seeded with 50 μL of growth media (IMDM+10% FBS+2 mM L-Glu for MV4; 11 and RPMI-1640+10% FBS+2 mM L-Glu for all others) in 384-well white microplates, and incubated overnight (37° C., 5% C02, 80% RH). On the second day, the cells were treated with Compound I using an ECHO acoustic liquid handler (10 point half-log serial dilution, 31.5 μM top concentration, 0.3% final DMSO concentration). After 6 h incubation (37° C., 5% C02, 80% RH), 25 μL of Caspase-Glo 3/7 reagent (Promega) was added into each well, and plates were incubated at room temperature for 30 min protected from light. Luminescence was recorded using an Infinite M200 microplate reader (Tecan) with a 100 ms integration time.

For assay [2], the system named is MV4; 11 (acute myeloid leukemia) cells. The assay is described as follows: Caspase Activity assay (Caspase-Glo 3/7), MV4; 11. The following applies: Homo sapiens, 11 cells, 6 h treatment, induction of apoptosis. Here is the method: as §1
For assay [3], the system named is NCI-H23 (non-small cell lung cancer) cells. The assay is described as follows: Caspase Activity assay (Caspase-Glo 3/7), NCI-H23. The following applies: Homo sapiens, 6 h treatment, induction of apoptosis. Here is the method: as §1
The subject of assay [4] is MOLP-8 (multiple myeloma) cells. The assay is described as follows: Caspase Activity assay (Caspase-Glo 3/7), MOLP-8. The following applies: Homo sapiens; MOLP-8 cells, 6 h treatment, induction of apoptosis. Here is the method:
as §1

Regarding `Cc1c2c(nn1C)CSCc1cc(n(C)n1)CSc1cc(c3ccccc3c1)OCCCc1c(C(=O)O)n(C)c3c-2c(Cl)ccc13` (atropisomer, axis not shown; (Ra)) [Compound I, (Ra)-(+)-17-chloro-5,13,14,22-tetramethyl-28-oxa-2,9-dithia-5,6,12,13,22-pentaazaheptacyclo[27.7.1.1^4,7.0^11,15.0^16,21.0^20,24.0^30,35]octatriaconta-1(37),4(38),6,11,14,16,18,20,23,29,31,33,35-tridecaene-23-carboxylic acid], the EC50 in assay [1] came out at 43 nM; in assay [2], 20 nM; in assay [3] it was 193 nM; in assay [4] it was 30 nM.

Usually EC50 stands for the concentration needed to bring the measured effect to its halfway point. Read a high EC50 as a less potent agent.
